# System: MPO activity
# Assay: MR imaging of CFA-induced subcutaneous inflammation
# Type: in vivo
# Conditions: wild-type mice, 0.3 mmol/kg
smiles,measurement,value
"CNC[C@H](O)[C@@H](O)[C@H](O)[C@H](O)CO.O=C([O-])CN1CCN(CC(=O)[O-])CCN(CC(=O)O)CCN(CC(=O)[O-])CC1.[Gd+3] [DOTA-Gd, gadoterate meglumine]",Course of CNR over 60 min,decreased rapidly over time

# — article PMC8564765 (Journal of medicinal chemistry, 2021)
